Measured values reported in publication PMC7470102, “Synthesis, anticancer evaluation and molecular docking studies of new benzimidazole- 1,3,4-oxadiazole derivatives as human topoisomerase types I poison” (Journal of Enzyme Inhibition and Medicinal Chemistry, 2020).

What was measured:
[1] = tested on: A549 (lung carcinoma cell line); assay: MTT cytotoxicity assay, A549; format: cell-based; details: Homo sapiens, A549, MTT assay, read-out: IC50 against A549
Protocol: (§1) The anticancer activity of compounds 5a–5o were screened according to the MTT assays. The MTT assays were performed as previously described[32]^,[33]. Anticancer activity of final compounds was assessed against five different cancer cell lines A549 (lung carcinoma cell line), HeLa (cervical cell line), MCF-7 (human breast adenocarcinoma cell line), HepG2 (human liver carcinoma cell line) and C6 (rat glioma cell line) cell lines as well as NIH3T3 (mouse embryo fibroblast cell line). Doxorubicin and Hoechst 33342 were used as the reference drugs in the MTT assays.
(§2) The benzimidazole-1,3,4-oxadiazole derivatives (5a-5o) were tested their cytotoxic effects in vitro using five cancer cell line A549 (lung carcinoma cell line), HeLa (cervical cell line), MCF-7 (human breast adenocarcinoma cell line), HepG2 (human liver carcinoma cell line) and C6 (rat glioma cell line) cell lines as well as NIH3T3 (mouse embryo fibroblast cell line). Doxorubicin and Hoechst 33342 were used for this study as a reference drugs.

[2] = tested on: MCF-7 (human breast adenocarcinoma cell line); assay: MTT cytotoxicity assay, MCF-7; format: cell-based; details: Homo sapiens, MCF7, MCF-7 cell line, read-out: IC50 against MCF-7
Protocol: as §1, §2

[3] = tested on: C6 (rat glioma cell line); assay: MTT cytotoxicity assay, C6; format: cell-based; details: Rattus norvegicus, read-out: IC50 against C6
Protocol: as §1, §2

[4] = tested on: HepG2 (human liver carcinoma cell line); assay: MTT cytotoxicity assay, HepG2; format: cell-based; details: Homo sapiens, read-out: IC50 against HepG2
Protocol: as §1, §2

[5] = tested on: HeLa (cervical cell line); assay: MTT cytotoxicity assay, HeLa; format: cell-based; details: Homo sapiens, read-out: IC50 against HeLa
Protocol: as §1, §2

[6] = tested on: NIH3T3 (mouse embryo fibroblast cell line); assay: MTT cytotoxicity assay, NIH3T3 healthy cells; format: cell-based; details: Mus musculus, read-out: IC50 against NIH3T3
Protocol: The anticancer activity of compounds 5a–5o were screened according to the MTT assays. The MTT assays were performed as previously described[32]^,[33]. Anticancer activity of final compounds was assessed against five different cancer cell lines A549 (lung carcinoma cell line), HeLa (cervical cell line), MCF-7 (human breast adenocarcinoma cell line), HepG2 (human liver carcinoma cell line) and C6 (rat glioma cell line) cell lines as well as NIH3T3 (mouse embryo fibroblast cell line). Doxorubicin and Hoechst 33342 were used as the reference drugs in the MTT assays. It is crucial that an anticancer agent affects the cancer cell line but having minimal or no side-effect on healthy cells. For this purpose, the cytotoxic effects of the active compounds on the NIH3T3 cell line were investigated (Table 2).

C6 cells = assay: DNA synthesis inhibition assay (BrdU), C6; format: cell-based, rat; details: lower dose (IC50/2), 48 h vs 24 h incubation
Protocol: The BrdU cell proliferation method was performed to analyse the effects of the active compounds on proliferation of cancer cells. Cancer cells were seeded into the 96-well plates at a density of 1 × 10^4 cells. Compounds were added into the each well at three different concentrations (IC50/2, IC50 and 2xIC50) and the plates were incubated for 24 h. At the end of the incubation period, BrdU solution was added and cells were reincubated for 2 h at 37 °C. Anti-BrdU-POD ([…]) was added and the mixture was incubated for 90 min. Microplates were washed with PBS for three times. After adding substrate solution, the mixture was incubated for 15 min. OD of the wells were determined at 492 nm. Proliferation of control cells was assessed as 100% and growth inhibition % of cells, treated with test compounds and […] were calculated.
According to the MTT assay, compound 5n for A549 cell line; compounds 5a, 5d, 5e, 5o for MCF-7 cell line; compound 5k for C6 cell line; compound 5a for HepG2 cell line; compounds 5b, 5l and 5n for HeLa cell line were selected for the DNA synthesis inhibition assay. A549, C6, MCF-7, HepG2 and HeLa cells were incubated with three different concentrations (IC50/2, IC50, and […]) of the compounds for 24 and 48 h time periods. […] Doxorubicin was used as positive control.

C6 cell line = assay: Flow cytometric analysis (Annexin V/PI), C6; format: cell-based, rat; details: at IC50 concentrations
Protocol: Death pathway of the carcinogenic cell lines was detected by Annexin V-FITC Apoptosis Detection Kit (BD, Pharmingen) as reported previously described. […] FCS Express software was used to display the percent of normal and apoptotic cells at different stages. […] The experiments were carried out in triplicates.
Annexin V/PI staining on tested cancer cells treated with the active compounds was performed to investigate induction of apoptosis. […] According to the MTT assay, compound 5n for A549 cell line; compounds 5a, 5d, 5e, 5o for MCF-7 cell line; compound 5k for C6 cell line; compound 5a for HepG2 cell line; compounds 5b, 5l and 5n for HeLa cell line were selected for the flow cytometric analysis. Furthermore, flow cytometry studies were performed for reference drug doxorubicin. Flow cytometric analysis diagrams of tested compounds and doxorubicin at IC50/2, IC50, and 2xIC50 concentrations on cancer cells were presented in Figures 7–11.

Topoisomerase I = molecular target: T1, Topoisomerase I (Homo sapiens, UniProt P11387); assay: DNA topoisomerase I assay (relaxation of supercoiled plasmid DNA, agarose gel); format: biochemical; details: agarose gel electrophoresis, camptothecin positive control, Figure 12
T1 construct: purchased TopoGen TG1018-2
T1 sequence (P11387 1-765): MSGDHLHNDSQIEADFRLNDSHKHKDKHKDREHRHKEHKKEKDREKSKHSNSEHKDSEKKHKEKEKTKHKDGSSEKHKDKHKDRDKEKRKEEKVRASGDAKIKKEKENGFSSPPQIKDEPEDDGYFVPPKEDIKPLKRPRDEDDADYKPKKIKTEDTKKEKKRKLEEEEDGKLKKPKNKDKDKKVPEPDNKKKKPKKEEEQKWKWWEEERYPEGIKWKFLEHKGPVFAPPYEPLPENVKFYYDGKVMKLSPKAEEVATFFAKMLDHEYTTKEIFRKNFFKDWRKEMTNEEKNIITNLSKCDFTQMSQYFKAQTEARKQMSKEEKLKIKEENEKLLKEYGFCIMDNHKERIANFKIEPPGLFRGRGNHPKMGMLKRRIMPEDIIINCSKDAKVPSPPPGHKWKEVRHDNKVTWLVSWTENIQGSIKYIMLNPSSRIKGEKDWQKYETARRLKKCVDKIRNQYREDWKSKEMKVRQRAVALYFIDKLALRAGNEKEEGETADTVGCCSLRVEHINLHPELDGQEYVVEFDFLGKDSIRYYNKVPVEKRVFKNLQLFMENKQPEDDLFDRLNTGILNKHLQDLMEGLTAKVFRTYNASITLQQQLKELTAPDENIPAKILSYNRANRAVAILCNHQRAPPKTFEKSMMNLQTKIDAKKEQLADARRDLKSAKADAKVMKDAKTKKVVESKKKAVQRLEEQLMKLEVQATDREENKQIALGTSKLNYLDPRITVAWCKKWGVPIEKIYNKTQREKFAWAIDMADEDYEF
Protocol: The topoisomerase I inhibition activities of final compounds were measured as relaxation of supercoiled plasmid DNA using agarose gel electrophoresis and camptothecin was used as a positive control. The assay was carried out in a final volume of 20 µl reaction volume containing 2 µl of 10xTGS Buffer, 6 µl water, 2 µl supercoiled plasmid DNA, 2 µl test compound, 2 µl of Top1, 2 ul 10% SDS, 2 µl proteinase K, 2 µl DNA loading dye. After incubation of reaction mixtures at 37 °C for 30 min, electrophoresis was done on a 1% agarose gel at a potential 50 V for 75 min using 1xTAE buffer.
To determine whether the DNA intercalation properties of compounds 5a, 5b, 5d, 5e, 5k, 5l, 5n and 5o might result in Topo I inhibition, agarose gel electrophores is assay was performed to evaluate the Topo I inhibitory activity of them via agarose-gel electrophoresis and CPT was used as the positive control. The TopoGEN Topoisomerase I Drug Screening Kit were optimised and implemented to accomplish this goal.
In a previous studies, it was said that the compounds poisoning topoisomerase caused the formation of nick bands in such gel appearances, while the formation of Supercoiled bands was said to be caused by catalytic inhibitors that bound to either DNA or enzyme[40]^,[41].

`CCOc1ccc(-c2nc3ccc(-c4nnc(SCC(=O)N5CCN(C)CC5)o4)cc3[nH]2)cc1` [5k, 2-((5-(2-(4-Ethoxyphenyl)-1H-benzo[d]imidazol-6-yl)-1,3,4-oxadiazol-2-yl)thio)-1–(4-methyl-piperazin-1-yl)-ethane-1-on] gave an IC50 [1] of 22.3 ± 1.05 µM, an IC50 [2] of 38.7 ± 1.88 µM and an IC50 [3] of 3.2 ± 0.152 µM. For the same compound, the IC50 [4] was ≥ 100 µM, the IC50 [5] was 11.2 ± 0.467 µM and the IC50 [6] was 74.6 ± 3.63 µM. For the same compound, the “DNA synthesis inhibition at 48 h relative to 24 h” value (C6 cells) was “eight times higher”, the “percentage of apoptotic cells” value (C6 cell line) was 12.3% and the “Topo I inhibition activity” value (Topoisomerase I) was “potent topo I inhibition activity”.
